Patent US11155517B2, “4-substituted phenylamine derivatives and their use to protect crops by fighting undesired phytopathogenic micoorganisms” (PI INDUSTRIES LTD., priority 2016, dated 2021)

What was measured:
Assay type in all cases: cell-based
Botrytis cinerea = Botrytis cinerea (gray mold) in vitro test, radial growth on Potato Dextrose Agar; conditions: 168 h, 300 ppm, seven days, 22° C., read-out: % (control) compared to the untreated check (radial growth)
Fusarium culmorum = Fusarium culmorum (foot rot of cereals) in vitro test, radial growth on Potato Dextrose Agar; conditions: Fusarium culmorum, 168 h, read-out: % control compared to the untreated check (radial growth)
Colletotrichum capsici = Colletotrichum capsici (anthracnose) in vitro test, radial growth on Potato Dextrose Agar; conditions: Colletotrichum truncatum, 168 h; 300 ppm; seven days, 25° C.; read-out: % control compared to the untreated check (radial growth)
Rhizoctonia solani = Rhizoctonia solani (rice sheath blight/potato black scurf) in vitro test, radial growth on Potato Dextrose Agar; conditions: 168 h, 300 ppm, seven days, 25° C., read-out: % control compared to the untreated check (radial growth)
Pyricularia oryzae = test: microbe, parasite or virus in culture; conditions: 168 h, read-out: % control compared to the untreated check (radial growth)
Alternaria solani = Alternaria solani (early blight of tomato/potato) in vitro test, radial growth on Potato Dextrose Agar; conditions: 168 h, 300 ppm, seven days, 25° C., read-out: % control compared to the untreated check (radial growth)
Septoria lycopersici = Septoria lycopersici (leaf spot of tomato) in vitro test, radial growth on Potato Dextrose Agar; conditions: 168 h, seven days, 25° C., read-out: % control compared to the untreated check (radial growth)

| Structure (SMILES) | inhibition of growth at 300 ppm (Botrytis cinerea) | inhibition of growth at 300 ppm (Fusarium culmorum) | inhibition of growth at 300 ppm (Colletotrichum capsici) | inhibition of growth at 300 ppm (Rhizoctonia solani) | inhibition of growth at 300 ppm (Pyricularia oryzae) | inhibition of growth at 300 ppm (Alternaria solani) | inhibition of growth at 300 ppm (Septoria lycopersici) |
| --- | --- | --- | --- | --- | --- | --- | --- |
| CCN(C)C=Nc1cc(C)c(Cc2cc(F)ccc2Cl)cc1C [Compound 143, N′-(4-(2-chloro-5-fluorobenzyl)-2,5-dimethylphenyl)-N-ethyl-N-methylformimidamide] | > 80% | 75% | > 80% | > 80% | > 75% | > 75% | > 70% |
| CCN(C)C=Nc1cc(C)c(Cc2c(F)cccc2C(F)(F)F)cc1Cl [Compound 220, N′-(2-chloro-4-(2-fluoro-6-(trifluoromethyl)benzyl)-5-methylphenyl)-N-ethyl-N-methylformimidamide] | > 80% | 75% | > 80% | > 80% | > 75% | > 75% | > 70% |
| CCN(C)C=Nc1cc(C)c(Cc2cccc(F)c2)cc1F [Compound 209, N-ethyl-N′-(2-fluoro-4-(3-fluorobenzyl)-5-methylphenyl)-N-methylformimidamide] | > 80% | 75% | > 80% | > 80% | > 75% | > 75% | > 70% |
| CCN(C)C=Nc1cc(Cl)c(Cc2ccccc2F)cc1C [Compound 256, N′-(5-chloro-4-(2-fluorobenzyl)-2-methylphenyl)-N-ethyl-N-methylformimidamide] | > 80% | 75% | > 80% | > 80% | > 75% | > 75% | > 70% |
| CCN(C)C=Nc1cc(C)c(Cc2ccccc2Cl)cc1F [Compound 213, N′-(4-(2-chlorobenzyl)-2-fluoro-5-methylphenyl)-N-ethyl-N-methylformimidamide] | > 80% | 75% | > 80% | > 80% | > 75% | > 75% | > 70% |
| Cc1cc(N=CN2CCCCC2)c(C)cc1Cc1ccc(F)cc1 [Compound 60, N-(4-(4-fluorobenzyl)-2,5-dimethylphenyl)-1-(piperidin-1-yl)methanimine] | > 80% | 75% | > 80% | > 80% | > 75% | > 75% | > 70% |
| CCN(C)C=Nc1cc(C)c(Cc2ccc(OC(F)(F)F)cc2)cc1C [Compound 117, N′-(2,5-dimethyl-4-(4-(trifluoromethoxy)benzyl)phenyl)-N-ethyl-N-methylformimidamide] | > 80% | 75% | > 80% | > 80% | > 75% | > 75% | > 70% |
| CCN(C)C=Nc1cc(Cl)c(Cc2ccc(C)cc2)cc1C [Compound 261, N′-(5-chloro-2-methyl-4-(4-methylbenzyl)phenyl)-N-ethyl-N-methylformimidamide] | > 80% | 75% | > 80% | > 80% | > 75% | > 75% | > 70% |
| CCN(C)C=Nc1cc(C)c(Cc2ccccc2F)cc1F [Compound 214, N-ethyl-N′-(2-fluoro-4-(2-fluorobenzyl)-5-methylphenyl)-N-methylformimidamide] | > 80% | 75% | > 80% | > 80% | > 75% | > 75% | > 70% |
| CCN(C)C=Nc1cc(C)c(Cc2ccccc2Cl)cc1C1CC1 [Compound 223, N′-(4-(2-chlorobenzyl)-2-cyclopropyl-5-methylphenyl)-N-ethyl-N-methylformimidamide] | > 80% | 75% | > 80% | > 80% | > 75% | > 75% | > 70% |
| Cc1cc(N=CN(C)C(C)C)c(C)cc1Cc1ccccc1Cl [Compound 82, N′-(4-(2-chlorobenzyl)-2,5-dimethylphenyl)-N-isopropyl-N-methylformimidamide] | > 80% | 75% | > 80% | > 80% | > 75% | > 75% | > 70% |
| CCN(C)C=Nc1cc(F)c(Cc2cccc(C(F)(F)F)c2)cc1C [Compound 196, N-ethyl-N′-(5-fluoro-2-methyl-4-(3-(trifluoromethyl)benzyl)phenyl)-N-methylformimidamide] | > 80% | 75% | > 80% | > 80% | > 75% | > 75% | > 70% |
| CCN(C)C=Nc1cc(C)c(Cc2ccc(C(F)(F)F)c(F)c2)cc1C [Compound 158, N-ethyl-N′-(4-(3-fluoro-4-(trifluoromethyl)benzyl)-2,5-dimethylphenyl)-N-methylformimidamide] | > 80% | 75% | > 80% | > 80% | > 75% | > 75% | > 70% |
| CCN(C)C=Nc1cc(C)c(Cc2ccc(SC(F)(F)F)cc2)cc1C [Compound 92, N′-(2,5-dimethyl-4-(4-((trifluoromethyl)thio)benzyl)phenyl)-N-ethyl-N-methylformimidamide] | > 80% | 75% | > 80% | > 80% | > 75% | > 75% | > 70% |
| CCN(C)C=Nc1cc(C)c(Cc2cccc([N+](=O)[O-])c2)cc1C [Compound 49, N′-(2,5-dimethyl-4-(3-nitrobenzyl)phenyl)-N-ethyl-N-methylformimidamide] | > 80% | 75% | > 80% | > 80% | > 75% | > 75% | > 70% |
| CCN(C)C=Nc1cc(C)c(Cc2ccc(Cl)cc2Cl)cc1C [Compound 162, N′-(4-(2,4-dichlorobenzyl)-2,5-dimethylphenyl)-N-ethyl-N-methylformimidamide] | > 80% | 75% | > 80% | > 80% | > 75% | > 75% | > 70% |
| CCN(C)C=Nc1cc(C)c(Cc2ccc(OC)cc2)cc1Cl [Compound 69, N′-(2-chloro-4-(4-methoxybenzyl)-5-methylphenyl)-N-ethyl-N-methylformimidamide] | > 80% | 75% | > 80% | > 80% | > 75% | > 75% | > 70% |
| CCN(C)C=Nc1cc(Cl)c(Cc2ccccc2C)cc1C [Compound 257, N′-(5-chloro-2-methyl-4-(2-methylbenzyl)phenyl)-N-ethyl-N-methylformimidamide] | > 80% | 75% | > 80% | > 80% | > 75% | > 75% | > 70% |
| CCN(C)C=Nc1cc(C)c(Cc2ccc(C(F)(F)F)cc2F)cc1C [Compound 201, N-ethyl-N′-(4-(2-fluoro-4-(trifluoromethyl)benzyl)-2,5-dimethylphenyl)-N-methylformimidamide] | > 80% | 75% | > 80% | > 80% | > 75% | > 75% | > 70% |
| CCN(C)C=Nc1cc(F)c(Cc2ccccc2C)cc1C [Compound 186, N-ethyl-N′-(5-fluoro-2-methyl-4-(2-methylbenzyl)phenyl)-N-methylformimidamide] | > 80% | 75% | > 80% | > 80% | > 75% | > 75% | > 70% |
| CCN(C)C=Nc1cc(C)c(Cc2ccc(F)c(C)c2)cc1C [Compound 109, N-ethyl-N′-(4-(4-fluoro-3-methylbenzyl)-2,5-dimethylphenyl)-N-methylformimidamide] | > 80% | 75% | > 80% | > 80% | > 75% | > 75% | > 70% |
